Data as given in patent US6355799B1, “Substituted benzene compounds, process for their preparation, and herbicidal and defoliant compositions containing them” (ISK Americas Incorporated, priority 1997, dated 2002).

Tests used:
Assay type in all cases: in vivo
[1] = test system: redroot pigweed (Amaranthus retroflexus, AMARE); assay: Pre-emerge test, greenhouse herbicide activity screening; conditions: rating scale 0-100, 14 days after application
Summary of the method: (§1)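 Herbicidal damage is scored 0 (none) to 100 (complete plant death) two weeks after a simulated field spray. Rates span 15–1000 g ai/ha, delivered in acetone at 187 l/ha. For post-emergence treatments, plants have 2–3 leaves and the spray carries 0.25% v/v non-ionic surfactant.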

[2] = test system: barnyardgrass (Echinochloa crus-galli, ECHCG); assay: as above; conditions: rating scale 0-100, 14 days after application
Summary of the method: as §1

[3] = test system: green foxtail (Setaria viridis, SETVI); assay: as above; conditions: rating scale 0-100, 14 days after application
Summary of the method: as §1

[4] = test system: ivyleaf morningglory (Ipomoea hederacea, IPOHE); assay: as above; conditions: rating scale 0-100, 14 days after application
Summary of the method: as §1

[5] = test system: johnsongrass (Sorghum halepense, SORHA); assay: as above; conditions: rating scale 0-100, 14 days after application
Summary of the method: as §1

[6] = test system: lambsquarters (Chenopodium album, CHEAL); assay: as above; conditions: rating scale 0-100, 14 days after application
Summary of the method: as §1

[7] = test system: large crabgrass (Digitaria sanguinalis, DIGSA); assay: as above; conditions: rating scale 0-100, 14 days after application
Summary of the method: as §1

[8] = test system: sicklepod (Cassia obtusifolia, CASOB); assay: as above; conditions: rating scale 0-100, 14 days after application
Summary of the method: as §1

[9] = test system: velvetleaf (Abutilon theophrasti, ABUTH); assay: as above; conditions: rating scale 0-100, 14 days after application
Summary of the method: as §1

[10] = test system: field corn (Zea mays L., var. Dekalb 535, CORN); assay: Pre-emerge test, crop safety; conditions: rating scale 0-100, 14 days after application
Summary of the method: (§2)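 Plants grown in 10 cm pots of sandy loam mix received acetone-dissolved compounds through a moving flat-fan nozzle. Doses ranged from 15 to 1000 g ai/ha. Pre-emerge pots were seeded one day earlier, post-emerge pots 8–21 days earlier. Fourteen days on, each pot was graded 0–100 for damage.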

[11] = test system: upland rice (Oryza sp., var. Tebonnet, RICE); assay: Pre-emerge test, crop safety; conditions: rating scale 0-100, 14 days after application
Summary of the method: as §2

[12] = test system: barnyardgrass (Echinochloa crus-galli, ECHCG); assay: Post-emerge test, greenhouse herbicide activity screening; conditions: rating scale 0-100 (0 no damage, 100 complete death), 14 days after application
Summary of the method: (§3)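 Fourteen days after spraying, crop and weed injury was graded visually from 0, no effect, to 100, every plant dead. Test substances were dissolved in acetone and applied at 15–1000 g ai/ha with a flat-fan nozzle. Application was either pre-emergence, one day after sowing, or post-emergence at the 2–3 leaf stage.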

[13] = test system: common ragweed (Ambrosia artemisizfolia L., AMBEL); assay: as above; conditions: rating scale 0-100 (0 no damage, 100 complete death), 14 days after application
Summary of the method: as §3

[14] = test system: green foxtail (Setaria viridis, SETVI); assay: as above; conditions: rating scale 0-100 (0 no damage, 100 complete death), 14 days after application
Summary of the method: as §3

[15] = test system: ivyleaf morningglory (Ipomoea hederacea, IPOHE); assay: as above; conditions: rating scale 0-100 (0 no damage, 100 complete death), 14 days after application
Summary of the method: as §3

[16] = test system: johnsongrass (Sorghum halepense, SORHA); assay: as above; conditions: rating scale 0-100 (0 no damage, 100 complete death), 14 days after application
Summary of the method: as §3

[17] = test system: lambsquarters (Chenopodium album, CHEAL); assay: as above; conditions: rating scale 0-100 (0 no damage, 100 complete death), 14 days after application
Summary of the method: as §3

[18] = test system: large crabgrass (Digitaria sanguinalis, DIGSA); assay: as above; conditions: rating scale 0-100 (0 no damage, 100 complete death), 14 days after application
Summary of the method: as §3

[19] = test system: redroot pigweed (Amaranthus retroflexus, AMARE); assay: as above; conditions: rating scale 0-100 (0 no damage, 100 complete death), 14 days after application
Summary of the method: as §3

[20] = test system: sicklepod (Cassia obtusifolia, CASOB); assay: as above; conditions: rating scale 0-100 (0 no damage, 100 complete death), 14 days after application
Summary of the method: as §3

[21] = test system: velvetleaf (Abutilon theophrasti, ABUTH); assay: as above; conditions: rating scale 0-100 (0 no damage, 100 complete death), 14 days after application
Summary of the method: as §3

[22] = test system: field corn (Zea mays L., var. Dekalb 535, CORN); assay: Post-emerge test, crop safety; conditions: rating scale 0-100 (0 no damage, 100 complete death), 14 days after application
Summary of the method: as §1

[23] = test system: upland rice (Oryza sp., var. Tebonnet, RICE); assay: Post-emerge test, crop safety; conditions: rating scale 0-100 (0 no damage, 100 complete death), 14 days after application
Summary of the method: as §1

CCOCCOC(=O)C(Cl)Cc1c(OC)c(Cl)cc(F)c1-n1c(=O)cc(C(F)(F)F)n(C)c1=O (centres unmarked) [14-26]
99: Pre-emerge herbicidal activity, phytotoxicity rating SETVI ([3]; 250 g ai/ha)
0: Pre-emerge herbicidal activity, phytotoxicity rating ECHCG ([2]; 63 g ai/ha) | Pre-emerge herbicidal activity, phytotoxicity rating SETVI ([3]; 63 g ai/ha) | Pre-emerge herbicidal activity, phytotoxicity rating IPOHE ([4]; 63 g ai/ha) | Pre-emerge herbicidal activity, phytotoxicity rating IPOHE ([4]; 250 g ai/ha) | Pre-emerge herbicidal activity, phytotoxicity rating SORHA ([5]; 63 g ai/ha) | Pre-emerge herbicidal activity, phytotoxicity rating CASOB ([8]; 63 g ai/ha) | Pre-emerge phytotoxicity rating, crop damage CORN ([10]; 63 g ai/ha) | Pre-emerge phytotoxicity rating, crop damage RICE ([11]; 63 g ai/ha) | Post-emerge Herbicidal Activity, phytotoxicity rating SETVI ([14]; Rate 63 g ai/ha) | Post-emerge Herbicidal Activity, phytotoxicity rating SETVI ([14]; Rate 250 g ai/ha)
80: Pre-emerge herbicidal activity, phytotoxicity rating ABUTH ([9]; 63 g ai/ha) | Pre-emerge phytotoxicity rating, crop damage RICE ([11]; 250 g ai/ha)
60: Post-emerge Herbicidal Activity, phytotoxicity rating CHEAL ([17]; Rate 63 g ai/ha)
30: Post-emerge Herbicidal Activity, phytotoxicity rating SORHA ([16]; Rate 63 g ai/ha)
95: Pre-emerge herbicidal activity, phytotoxicity rating ECHCG ([2]; 250 g ai/ha) | Pre-emerge herbicidal activity, phytotoxicity rating DIGSA ([7]; 250 g ai/ha)
10: Post-emerge phytotoxicity rating RICE (crop damage) ([23]; Rate 63 g ai/ha) | Post-emerge phytotoxicity rating RICE (crop damage) ([23]; Rate 250 g ai/ha)
20: Pre-emerge herbicidal activity, phytotoxicity rating CASOB ([8]; 250 g ai/ha) | Post-emerge Herbicidal Activity, phytotoxicity rating IPOHE ([15]; Rate 63 g ai/ha)
100: Pre-emerge herbicidal activity, phytotoxicity rating AMARE ([1]; 63 g ai/ha) | Pre-emerge herbicidal activity, phytotoxicity rating AMARE ([1]; 250 g ai/ha) | Pre-emerge herbicidal activity, phytotoxicity rating CHEAL ([6]; 250 g ai/ha) | Pre-emerge herbicidal activity, phytotoxicity rating ABUTH ([9]; 250 g ai/ha) | Post-emerge Herbicidal Activity, phytotoxicity rating ECHCG ([12]; Rate 63 g ai/ha) | Post-emerge Herbicidal Activity, phytotoxicity rating ECHCG ([12]; Rate 250 g ai/ha) | Post-emerge Herbicidal Activity, phytotoxicity rating AMBEL ([13]; Rate 63 g ai/ha) | Post-emerge Herbicidal Activity, phytotoxicity rating AMBEL ([13]; Rate 250 g ai/ha) | Post-emerge Herbicidal Activity, phytotoxicity rating IPOHE ([15]; Rate 250 g ai/ha) | Post-emerge Herbicidal Activity, phytotoxicity rating CHEAL ([17]; Rate 250 g ai/ha) | Post-emerge Herbicidal Activity, phytotoxicity rating DIGSA ([18]; Rate 63 g ai/ha) | Post-emerge Herbicidal Activity, phytotoxicity rating DIGSA ([18]; Rate 250 g ai/ha) | Post-emerge Herbicidal Activity, phytotoxicity rating AMARE ([19]; Rate 250 g ai/ha) | Post-emerge Herbicidal Activity, phytotoxicity rating ABUTH ([21]; Rate 250 g ai/ha) | Post-emerge phytotoxicity rating CORN (crop damage) ([22]; Rate 250 g ai/ha)
50: Pre-emerge herbicidal activity, phytotoxicity rating DIGSA ([7]; 63 g ai/ha) | Pre-emerge phytotoxicity rating, crop damage CORN ([10]; 250 g ai/ha) | Post-emerge Herbicidal Activity, phytotoxicity rating CASOB ([20]; Rate 63 g ai/ha)
70: Pre-emerge herbicidal activity, phytotoxicity rating SORHA ([5]; 250 g ai/ha) | Pre-emerge herbicidal activity, phytotoxicity rating CHEAL ([6]; 63 g ai/ha) | Post-emerge Herbicidal Activity, phytotoxicity rating SORHA ([16]; Rate 250 g ai/ha) | Post-emerge Herbicidal Activity, phytotoxicity rating ABUTH ([21]; Rate 63 g ai/ha)
40: Post-emerge phytotoxicity rating CORN (crop damage) ([22]; Rate 63 g ai/ha)
90: Post-emerge Herbicidal Activity, phytotoxicity rating AMARE ([19]; Rate 63 g ai/ha) | Post-emerge Herbicidal Activity, phytotoxicity rating CASOB ([20]; Rate 250 g ai/ha)

COc1c(Cl)cc(F)c(-n2c(=O)cc(C(F)(F)F)n(C)c2=O)c1CC(Cl)C(=O)OCCC#N (centres unmarked) [14-29]
90: Post-emerge Herbicidal Activity, phytotoxicity rating AMARE ([19]; Rate 63 g ai/ha)
10: Pre-emerge phytotoxicity rating, crop damage CORN ([10]; 250 g ai/ha) | Post-emerge phytotoxicity rating RICE (crop damage) ([23]; Rate 250 g ai/ha)
70: Post-emerge Herbicidal Activity, phytotoxicity rating SETVI ([14]; Rate 250 g ai/ha) | Post-emerge Herbicidal Activity, phytotoxicity rating SORHA ([16]; Rate 250 g ai/ha) | Post-emerge Herbicidal Activity, phytotoxicity rating DIGSA ([18]; Rate 63 g ai/ha)
30: Post-emerge Herbicidal Activity, phytotoxicity rating CHEAL ([17]; Rate 63 g ai/ha)
20: Pre-emerge herbicidal activity, phytotoxicity rating AMARE ([1]; 63 g ai/ha) | Pre-emerge phytotoxicity rating, crop damage RICE ([11]; 250 g ai/ha) | Post-emerge Herbicidal Activity, phytotoxicity rating SETVI ([14]; Rate 63 g ai/ha)
80: Pre-emerge herbicidal activity, phytotoxicity rating ABUTH ([9]; 250 g ai/ha) | Post-emerge Herbicidal Activity, phytotoxicity rating IPOHE ([15]; Rate 63 g ai/ha) | Post-emerge Herbicidal Activity, phytotoxicity rating IPOHE ([15]; Rate 250 g ai/ha)
100: Post-emerge Herbicidal Activity, phytotoxicity rating ECHCG ([12]; Rate 63 g ai/ha) | Post-emerge Herbicidal Activity, phytotoxicity rating ECHCG ([12]; Rate 250 g ai/ha) | Post-emerge Herbicidal Activity, phytotoxicity rating AMBEL ([13]; Rate 63 g ai/ha) | Post-emerge Herbicidal Activity, phytotoxicity rating AMBEL ([13]; Rate 250 g ai/ha) | Post-emerge Herbicidal Activity, phytotoxicity rating AMARE ([19]; Rate 250 g ai/ha) | Post-emerge Herbicidal Activity, phytotoxicity rating ABUTH ([21]; Rate 250 g ai/ha)
40: Post-emerge Herbicidal Activity, phytotoxicity rating CASOB ([20]; Rate 250 g ai/ha)
50: Pre-emerge herbicidal activity, phytotoxicity rating CHEAL ([6]; 250 g ai/ha) | Pre-emerge herbicidal activity, phytotoxicity rating DIGSA ([7]; 250 g ai/ha) | Post-emerge Herbicidal Activity, phytotoxicity rating SORHA ([16]; Rate 63 g ai/ha) | Post-emerge Herbicidal Activity, phytotoxicity rating ABUTH ([21]; Rate 63 g ai/ha) | Post-emerge phytotoxicity rating CORN (crop damage) ([22]; Rate 250 g ai/ha)
60: Post-emerge Herbicidal Activity, phytotoxicity rating CHEAL ([17]; Rate 250 g ai/ha)
0: Pre-emerge herbicidal activity, phytotoxicity rating ECHCG ([2]; 63 g ai/ha) | Pre-emerge herbicidal activity, phytotoxicity rating ECHCG ([2]; 250 g ai/ha) | Pre-emerge herbicidal activity, phytotoxicity rating SETVI ([3]; 63 g ai/ha) | Pre-emerge herbicidal activity, phytotoxicity rating SETVI ([3]; 250 g ai/ha) | Pre-emerge herbicidal activity, phytotoxicity rating IPOHE ([4]; 63 g ai/ha) | Pre-emerge herbicidal activity, phytotoxicity rating IPOHE ([4]; 250 g ai/ha) | Pre-emerge herbicidal activity, phytotoxicity rating SORHA ([5]; 63 g ai/ha) | Pre-emerge herbicidal activity, phytotoxicity rating SORHA ([5]; 250 g ai/ha) | Pre-emerge herbicidal activity, phytotoxicity rating CHEAL ([6]; 63 g ai/ha) | Pre-emerge herbicidal activity, phytotoxicity rating DIGSA ([7]; 63 g ai/ha) | Pre-emerge herbicidal activity, phytotoxicity rating CASOB ([8]; 63 g ai/ha) | Pre-emerge herbicidal activity, phytotoxicity rating CASOB ([8]; 250 g ai/ha) | Pre-emerge herbicidal activity, phytotoxicity rating ABUTH ([9]; 63 g ai/ha) | Pre-emerge phytotoxicity rating, crop damage CORN ([10]; 63 g ai/ha) | Pre-emerge phytotoxicity rating, crop damage RICE ([11]; 63 g ai/ha) | Post-emerge Herbicidal Activity, phytotoxicity rating CASOB ([20]; Rate 63 g ai/ha) | Post-emerge phytotoxicity rating RICE (crop damage) ([23]; Rate 63 g ai/ha)
95: Pre-emerge herbicidal activity, phytotoxicity rating AMARE ([1]; 250 g ai/ha) | Post-emerge Herbicidal Activity, phytotoxicity rating DIGSA ([18]; Rate 250 g ai/ha)
15: Post-emerge phytotoxicity rating CORN (crop damage) ([22]; Rate 63 g ai/ha)
